Measurements reported in US8785377B2, “Tetrazolyl macrocyclic hepatitis C serine protease inhibitors” (Enanta Pharmaceuticals, Inc., priority 2006, dated 2014).

Columns and labels:
[1] = test system: HCV replicon RNA in Huh 11-7 cell line; experiment: Cell-Based Replicon Assay; conditions: Hepatitis C virus, 96 h; Huh 11-7 cells, 4 days
Procedure: Quantification of HCV replicon RNA (HCV Cell Based Assay) is accomplished using the Huh 11-7 cell line (Lohmann, et al Science 285:110-113, 1999). Cells are seeded at 4×10^3 cells/well in 96 well plates and fed media containing DMEM (high glucose), 10% fetal calf serum, penicillin-streptomycin and non-essential amino acids. Cells are incubated in a 7.5% CO2 incubator at 37° C. At the end of the incubation period, total RNA is extracted and purified from cells using Ambion RNAqueous 96 Kit (Catalog No. AM1812). To amplify the HCV RNA so that sufficient material can be detected by an HCV specific probe (below), primers specific for HCV (below) mediate both the reverse transcription of the HCV RNA and the amplification of the cDNA by polymerase chain reaction (PCR) using the TaqMan One-Step RT-PCR Master Mix Kit (Applied Biosystems catalog no. 4309169). The nucleotide sequences of the RT-PCR primers, which are located in the NS5B region of the HCV genome, are the following:
Detection of the RT-PCR product is accomplished using the Applied Biosystems (ABI) Prism 7500 Sequence Detection System (SDS) that detects the fluorescence that is emitted when the probe, which is labeled with a fluorescence reporter dye and a quencher dye, is degraded during the PCR reaction. The increase in the amount of fluorescence is measured during each cycle of PCR and reflects the increasing amount of RT-PCR product. Specifically, quantification is based on the threshold cycle, where the amplification plot crosses a defined fluorescence threshold. […] The data is analyzed using the ABI SDS program version 1.7. […]
The RT-PCR product was detected using the following labeled probe: […]
To normalize the data to an internal control molecule within the cellular RNA, RT-PCR is performed on the cellular messenger RNA glyceraldehyde-3-phosphate dehydrogenase (GAPDH). […] GAPDH RT-PCR is performed on the same RNA sample from which the HCV copy number is determined. […] The ratio of HCV/GAPDH RNA is used to calculate the activity of compounds evaluated for inhibition of HCV RNA replication. […]

[2] = Pharmacokinetic analysis, single oral dose in rat; conditions: in vivo, single oral dose of 20 mg/kg
[3] = molecular target: full-length NS3 HCV protease 1b tethered with NS4A cofactor (Hepatitis C virus genotype 1b, UniProt Q9WMX2); experiment: NS3/NS4a Protease Enzyme Assay; format: biochemical
Sequence of full-length NS3 HCV protease 1b tethered with NS4A cofactor (Q9WMX2 1027-1657, other chains not shown): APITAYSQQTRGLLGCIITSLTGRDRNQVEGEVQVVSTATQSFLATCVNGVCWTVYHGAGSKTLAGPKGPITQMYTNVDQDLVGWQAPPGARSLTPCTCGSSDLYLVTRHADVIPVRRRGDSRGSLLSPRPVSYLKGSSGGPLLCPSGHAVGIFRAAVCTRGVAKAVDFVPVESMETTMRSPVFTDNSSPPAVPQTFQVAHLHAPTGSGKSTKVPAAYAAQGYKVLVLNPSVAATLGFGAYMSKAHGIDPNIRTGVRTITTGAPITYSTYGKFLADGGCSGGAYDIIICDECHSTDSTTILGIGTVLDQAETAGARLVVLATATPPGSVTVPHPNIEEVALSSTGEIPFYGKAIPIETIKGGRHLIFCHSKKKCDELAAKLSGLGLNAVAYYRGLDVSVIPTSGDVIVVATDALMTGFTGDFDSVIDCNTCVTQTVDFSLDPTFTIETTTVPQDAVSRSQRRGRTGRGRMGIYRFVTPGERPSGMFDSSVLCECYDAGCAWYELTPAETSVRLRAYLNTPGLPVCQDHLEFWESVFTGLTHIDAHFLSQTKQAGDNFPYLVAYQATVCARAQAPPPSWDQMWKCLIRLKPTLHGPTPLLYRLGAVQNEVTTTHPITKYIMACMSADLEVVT
Procedure: HCV protease activity and inhibition is assayed using an internally quenched fluorogenic substrate. A DABCYL and an EDANS group are attached to opposite ends of a short peptide. Quenching of the EDANS fluorescence by the DABCYL group is relieved upon proteolytic cleavage. Fluorescence is measured with a Molecular Devices Fluoromax (or equivalent) using an excitation wavelength of 355 nm and an emission wavelength of 485 nm.
The assay is run in Corning white half-area 96-well plates (VWR 29444-312 [Corning 3693]) with full-length NS3 HCV protease 1b tethered with NS4A cofactor (final enzyme concentration 1 to 15 nM). The assay buffer is complemented with 10 μM NS4A cofactor Pep 4A (Anaspec 25336 or in-house, MW 1424.8). RET S1 (Ac-Asp-Glu-Asp(EDANS)-Glu-Glu-Abu-[COO]Ala-Ser-Lys-(DABCYL)-NH2, AnaSpec 22991, MW 1548.6) is used as the fluorogenic peptide substrate. The assay buffer contains 50 mM Hepes at pH 7.5, 30 mM NaCl and 10 mM BME. The enzyme reaction is followed over a 30 minutes time course at room temperature in the absence and presence of inhibitors.
The peptide inhibitors HCV Inh 1 (Anaspec 25345, MW 796.8) Ac-Asp-Glu-Met-Glu-Glu-Cys-OH, [−20° C.] and HCV Inh 2 (Anaspec 25346, MW 913.1) Ac-Asp-Glu-Dif-Cha-Cys-OH, are used as reference compounds.
IC50 values are calculated using XLFit in ActivityBase (IDBS) using equation 205: y=A+((B−A)/(1+((C/x)^D))).

Compound	EC50 [1]	AUC [2]	Cmax [2]	bioavailability [2]	IC50 [3]
COc1ccc(-c2nnn(C3CC4C(=O)NC5(C(=O)NS(=O)(=O)C6CC6)CC5C=CCCCCCC(NC(=O)OC5CCCC5)C(=O)N4C3)n2)cc1 (stereo not drawn) [Example 36]	0.8 nM	52900 ng·h/mL	16100 ng/mL	76%	0.1 nM
COc1ccc(-n2nnc(C3CC4C(=O)NC5(C(=O)NS(=O)(=O)C6CC6)CC5C=CCCCCCC(NC(=O)OC5CCCC5)C(=O)N4C3)n2)cc1 (stereo not drawn) [Example 101]	0.8 nM	–	–	–	0.4 nM
O=C(NC1CCCCCC=CC2CC2(C(=O)NS(=O)(=O)C2CC2)NC(=O)C2CC(n3nnc(-c4cccc5ccccc45)n3)CN2C1=O)OC1CCCC1 (stereo not drawn) [Example 117]	0.8 nM	–	–	–	0.2 nM
